Measured values published in the NIST ThermoML archive (doi:10.1016/j.tca.2014.06.026).
Numbers after ± are expanded uncertainties.

Test: xn = mol fraction of the nth substance listed
Conditions: 101 kPa, Liquid; for speed of sound: Frequency=2 MHz, Sing-around technique in a fixed-path interferometer; for viscosity: Oscillating disk viscometry; for mass density: Vibrating tube method

OC1CCCCC1 [cyclohexanol] + CN1CCCC1=O
Conditions	mass density [kg/m3]	speed of sound [m/s]	viscosity [mPa·s]
303.15 K, x2 = 0	941.32 ± 0.12	1443.2 ± 0.9	41.07 ± 8.2
303.15 K, x2 = 0.1088	952.25 ± 0.11	1462.3 ± 0.9	36.8 ± 7.4
303.15 K, x2 = 0.2155	962.68 ± 0.11	1480.5 ± 0.9	32.6 ± 6.5
303.15 K, x2 = 0.3201	973.14 ± 0.11	1495.7 ± 0.9	28.48 ± 5.7
303.15 K, x2 = 0.4228	983.38 ± 0.12	1508.8 ± 0.9	24.44 ± 4.9
303.15 K, x2 = 0.5235	992.24 ± 0.11	1520.5 ± 0.9	20.47 ± 4.1
303.15 K, x2 = 0.6223	999.61 ± 0.11	1530.5 ± 0.9	16.55 ± 3.3
303.15 K, x2 = 0.7194	1005.72 ± 0.11	1538.4 ± 0.9	12.7 ± 2.5
303.15 K, x2 = 0.8146	1011.65 ± 0.11	1544.3 ± 1	8.912 ± 1.8
303.15 K, x2 = 0.9081	1017.47 ± 0.11	1549.2 ± 1	5.186 ± 1
308.15 K, x2 = 0	937.23 ± 0.12	1419.6 ± 0.9	27.95 ± 5.6
308.15 K, x2 = 0.1088	948.65 ± 0.11	1440.8 ± 0.9	25.09 ± 5
308.15 K, x2 = 0.2155	959.48 ± 0.11	1458.7 ± 0.9	22.27 ± 4.5
308.15 K, x2 = 0.3201	970.04 ± 0.12	1473.4 ± 0.9	19.52 ± 3.9
308.15 K, x2 = 0.4228	979.96 ± 0.12	1486.2 ± 0.9	16.81 ± 3.4
308.15 K, x2 = 0.5235	988.83 ± 0.12	1497.5 ± 0.9	14.15 ± 2.8
308.15 K, x2 = 0.6223	996.39 ± 0.11	1506.9 ± 0.9	11.52 ± 2.3
308.15 K, x2 = 0.7194	1002.69 ± 0.11	1515.1 ± 0.9	8.928 ± 1.8
308.15 K, x2 = 0.8146	1008.39 ± 0.11	1521.2 ± 0.9	6.381 ± 1.3
308.15 K, x2 = 0.9081	1014.23 ± 0.11	1525.2 ± 0.9	3.878 ± 0.78
313.15 K, x2 = 0	933.48 ± 0.12	1395.2 ± 0.9	16.66 ± 3.3
313.15 K, x2 = 0.1088	945.29 ± 0.12	1418.3 ± 0.9	15.01 ± 3
313.15 K, x2 = 0.2155	956.55 ± 0.12	1436.2 ± 0.9	13.39 ± 2.7
313.15 K, x2 = 0.3201	967.18 ± 0.12	1450.8 ± 0.9	11.81 ± 2.4
313.15 K, x2 = 0.4228	976.72 ± 0.12	1463.7 ± 0.9	10.25 ± 2.1
313.15 K, x2 = 0.5235	985.29 ± 0.12	1475.1 ± 0.9	8.714 ± 1.7
313.15 K, x2 = 0.6223	992.87 ± 0.11	1484.6 ± 0.9	7.194 ± 1.4
313.15 K, x2 = 0.7194	999.41 ± 0.11	1492.4 ± 0.9	5.69 ± 1.1
313.15 K, x2 = 0.8146	1005.24 ± 0.11	1498.2 ± 0.9	4.211 ± 0.84
313.15 K, x2 = 0.9081	1010.33 ± 0.11	1500.6 ± 0.9	2.76 ± 0.55
318.15 K, x2 = 0	928.11 ± 0.12	1370.8 ± 0.9	8.888 ± 1.8
318.15 K, x2 = 0.1088	940.43 ± 0.12	1395.7 ± 0.9	8.064 ± 1.6
318.15 K, x2 = 0.2155	952.24 ± 0.12	1413.7 ± 0.9	7.26 ± 1.5
318.15 K, x2 = 0.3201	963.21 ± 0.12	1428.6 ± 0.9	6.472 ± 1.3
318.15 K, x2 = 0.4228	972.85 ± 0.12	1441.9 ± 0.9	5.694 ± 1.1
318.15 K, x2 = 0.5235	981.32 ± 0.12	1453.3 ± 0.9	4.926 ± 0.98
318.15 K, x2 = 0.6223	988.87 ± 0.11	1462.8 ± 0.9	4.163 ± 0.83
318.15 K, x2 = 0.7194	995.46 ± 0.11	1471.1 ± 0.9	3.406 ± 0.68
318.15 K, x2 = 0.8146	1001.47 ± 0.11	1476.7 ± 0.9	2.658 ± 0.53
318.15 K, x2 = 0.9081	1006.79 ± 0.11	1477.6 ± 0.9	1.924 ± 0.38
